System: PKA
Experiment: PKA-PhosFluor fluorescence in transfected HEK-293 cells treated with drug
Type: cell-based, human
Settings: HEK-293 cells transfected with PKA-PhosFluor; excitation 488 nm, emission 530 nm; 6 hr after addition of drug
Method: PKA-PhosFluor and cat_PKA are transcribed from different plasmids maintained by separate antibiotic resistance genes. FIG. 2C and FIG. 2D show charcoal agar plates streaked with E. coli containing the two plasmids indicated in B. The control plate lacks IPTG (FIG. 2C) while the IPTG plate was treated with 1 mM IPTG for 24 hours (FIG. 2D). […] Graphs depict % fluorescence change (excitation 488 nm; emission 530 nm) measured using a microplate reader 6 hr after addition of the indicated drug. Error bars indicate ±SEM (n=6). FIG. 2F is a schematic diagram showing mechanism of action for each drug.
Next, the ability of PKA-PhosFluor to monitor PKA activity in mammalian cells was examined. PKA activity is regulated by the level of cAMP, which itself, is regulated by other signaling pathways and cell growth (Uhler et al., 1986). […] All the drugs used have widely varying mechanisms of action (FIG. 2F).

Structure (SMILES)	fluorescence of PKA-PhosFluor (% fluorescence change)
Nc1ncnc2c1ncn2[C@@H]1O[C@@H]2COP(O)(=S)O[C@H]2[C@H]1O (some centres unmarked) [Rp-cAMP]	reduced fluorescence
Nc1ncnc2c1nc(Br)n2[C@@H]1O[C@@H]2COP(=O)(O)O[C@H]2[C@H]1O [br-cAMP]	induced fluorescence
CCCCCCOC(=O)[C@]1(O)C[C@@H]2O[C@@]1(C)n1c3ccccc3c3c4c(c5c6ccccc6n2c5c31)C(=O)NC4 [KT-5720]	reduced fluorescence
CC(C)Cn1c(=O)n(C)c(=O)c2[nH]cnc21 [IBMX]	induced fluorescence
O=S(=O)(NCCNC/C=C/c1ccc(Br)cc1)c1cccc2cnccc12 [H89]	reduced fluorescence

Reference: patent US20230064490A1, “FLUORESCENT PROTEIN BIOSENSOR FOR DETECTION OF KINASE ACTIVITY” (Lucidicor Inc., priority 2018, published 2023)
